In US20060058383A1 (priority 2004, published 2006):

Assays:
[1] = system: human lymphoma cells (Raji); assay: Apoptosis, annexin-V/PI flow cytometry; type: cell-based
Excerpt: Because the mTOR pathway plays an important role in promoting cellular nutrient metabolism and cell growth, and function to enhance cell survival downstream of the P13K/Akt pathway, the present inventors postulated that a simultaneous inhibition of mTOR and glycolysis, which serve as a major metabolic pathway for ATP generation in cancer cells, would severely impact cellular energy metabolism and have a potent cytotoxic effect against malignant cells. To test this possibility, rapamycin was used as an agent to inhibit mTOR, and glycolycin (3-bromo-2-oxopropionate, abbreviated herein as 3-BrOP) to inhibit glycolysis.
(§1) Cell growth inhibition was determined by direct counting of the cells after they were treated with rapamycin, 3-BrOP, or their combination. A Coulter Z2 Particle Count & Size Analyzer was used to determine cell counts at 24 h, 48 h, and 72 h after drug incubation. Apoptosis was measured by flow cytometric analysis of cells stained with annexin V-FITC and propidium iodide (PI). Cells were treated with the indicated compounds under various incubation conditions as described in the figure legends. The samples were collected, washed with cold PBS, and then suspended in annexin-V binding buffer. The cells were stained with annexin V-FITC for 15 min at room temperature, washed, and then stained with PI. The samples were analyzed using a FACSCalibur flow cytometer equipped with CELLQuestPro software (Becton-Dickinson, San Jose, Calif.).

[2] = system: HL-60 cells with high Bcl-2 expression; assay: MTT growth inhibition of Bcl-2 transfected cells; type: cell-based, human; conditions: MTT assay
Experimental: Cell growth inhibition was measured by MTT assay.
Increased expression of the anti-apoptotic molecule Bcl-2 has been associated with drug resistance in cancer cells. The over-expression of Bcl-2 in HL-60 cells was […] against the cytotoxic effect of S-Glycolycin. […] Thus, Glycolycin may be used to overcome drug resistance due to Bcl-2 over expression.

HL-60/AR cells = assay: MTT cytotoxicity, drug-resistant clone versus parental cells; type: cell-based, human; conditions: MTT assay
Experimental: HL-60 cell line and its drug-resistant clone HL-60/AR were incubated with the indicated concentrations of doxorubicin, vincristine, and 3-BrPA for 72 h. Cytotoxicity was measured by MTT assay. […] Based on the teachings provided herein, studies may be performed to determine the sensitivity of HL-60/AR cells to Glycolycin.
Ara-C, a drug commonly used in the frontline treatment of leukemia, was used in parallel experiments. Cytotoxicity was measured by MTT assay.

[3] = system: human colon cancer (HCT116) cells; assay: Sensitivity under hypoxic versus normoxic conditions, annexin-V/PI assay; type: cell-based
Excerpt: (§2) Cancer cells in solid tumors have to adapt to the hypoxia environment due to insufficient blood supply. Under hypoxia conditions, cancer cells use the glycolytic pathway to generate ATP without consuming oxygen. This metabolic adaptation also renders cancer cells relatively resistant to anticancer agents and radiation therapy, partially due to up-regulation of expression of cell survival factors such as HIF-1α. […] However, because under hypoxia condition cancer cells dependent on glycolysis for generation of ATP, it is contemplated that such cancer cells are vulnerable to glycolytic inhibition by Glycolycin. […] Thus, it is envisioned that Glycolycin can be use for effective treatment of many solid tumors, either as a single agent or in combination with other anticancer agents.

[4] = system: human lymphoma cells (Raji); assay: Sensitivity under hypoxic versus normoxic conditions, annexin-V/PI assay 24 h; type: cell-based; conditions: 0.3 μM
Experimental: (Annexin-V/PI assay, 24 h)
as §2

Raji cells [5] = assay: Cellular glucose uptake, [3H]-2-deoxyglucose; type: cell-based, human; conditions: 100 ng/ml for 20 h
Experimental: After the samples were washed three times with cold PBS, the radioactivity in the cell pellets was quantified by liquid scintillation counting. […] Intracellular nucleotides were extracted from the cells with 0.4 N of perchloric acid (PCA) for 10 min in ice-bath, neutralization with concentrated KOH to pH 7.0, and analyzed by HPLC analysis as described previously (Xu et al., 2005; Seymour et al., 1996). The intracellular ATP contents were calculated using the ATP standard curve generated under identical HPLC conditions, and normalized by equal cell number. The relative cellular ATP levels were expressed as percent of the control cells.

Raji cells [6] = assay: Cell growth by direct cell counting (Coulter Z2); type: cell-based, human; conditions: 100 ng/ml alone; up to 72 h
Experimental: A different assay was then used to further confirm the synergy between rapamycin and 3-BrOP. Raji cells were treated with 30 μM 3-BrOP, 100 ng/ml rapamycin, or their combination, and the numbers of cells were directly counted for consecutive 3 days, using a Coulter Z2 Particle Count & Size Analyzer.
as §1

## Nc1ccn([C@@H]2O[C@H](CO)[C@@H](O)[C@@H]2O)c(=O)n1 [ara-C]
[1]; concentration range of 0.5-1 μM, 30 h
  apoptosis, % of the cells: 20-35%
[2]
  sensitivity of Bcl-2 transfected cells compared to transfected control (Neo): reduced sensitivity
HL-60/AR cells
  sensitivity of HL-60/AR compared to parental HL-60 cells: moderately resistant

## COc1cccc2c1C(=O)c1c(O)c3c(c(O)c1C2=O)C[C@@](O)(C(=O)CO)C[C@@H]3O[C@H]1C[C@H](N)[C@H](O)[C@H](C)O1 [doxorubicin]
[3]
  sensitivity under hypoxic versus normoxic conditions: reduced
[4]
  sensitivity under hypoxic versus normoxic conditions: slightly reduced
[2]
  sensitivity of Bcl-2 transfected cells compared to transfected control (Neo): reduced sensitivity
HL-60/AR cells
  sensitivity of HL-60/AR compared to parental HL-60 cells: highly resistant

## CC[C@]1(O)C[C@H]2CN(CCc3c([nH]c4ccccc34)[C@@](C(=O)OC)(c3cc4c(cc3OC)N(C=O)[C@H]3[C@@](O)(C(=O)OC)[C@H](OC(C)=O)[C@]5(CC)C=CCN6CC[C@]43[C@@H]65)C2)C1 [vincristine]
HL-60/AR cells
  sensitivity of HL-60/AR compared to parental HL-60 cells: highly resistant

## CO[C@H]1C[C@@H]2CC[C@@H](C)[C@@](O)(O2)C(=O)C(=O)N2CCCC[C@H]2C(=O)O[C@H]([C@H](C)C[C@@H]2CC[C@@H](O)[C@H](OC)C2)CC(=O)[C@H](C)/C=C(\C)[C@@H](O)[C@@H](OC)C(=O)[C@H](C)C[C@H](C)/C=C/C=C/C=C/1C [rapamycin, reference compound]
Raji cells [5]
  decrease in glucose uptake: 6%
[1]; 100 ng/ml alone
  apoptosis: 4.8%
Raji cells [6]
  decrease in cell numbers: ~35%
